According to BigSolDB 2.1:

CN1CC(=O)N2[C@H](c3ccc4c(c3)OCO4)c3[nH]c4ccccc4c3C[C@@H]2C1=O
solubility (mole fraction)
Settings	298.15 K	303.15 K	308.15 K	313.15 K	318.15 K	323.15 K	328.15 K	333.15 K
in transcutol	0.00876	0.00973	0.0107	0.0119	0.0133	0.0149	0.0166	0.0182
in water	5.74e-07	7.59e-07	1.02e-06	1.34e-06	1.75e-06	2.26e-06	2.77e-06	3.45e-06
